The values that follow come from publication PMC3293837, “Biophysical Property and Broad Anti-HIV Activity of Albuvirtide, a 3-Maleimimidopropionic Acid-Modified Peptide Fusion Inhibitor” (PLoS ONE, 2012).

Data set [1] deals with HIV-1NL4-3 L33S infectious molecular clone. Type of data set: cell-based.
Description: The mutant viruses were generated by transient transfection of NL4-3 plasmids into 293T cells. The virus stocks were harvested 48 hours post-transfection and quantified for TCID50. […] In brief, 100 TCID50 viruses were used to infect TZM-bl cells in the presence or absence of serially diluted peptides. Two days post-infection, the cells were harvested and lysed in reporter lysis buffer, and the luciferase activity was measured. The IC50 was calculated as described above using GraphPad Prism software (GraphPad Prism software Inc., San Diego, CA).
For data set [2], the system named is HIV-1NL4-3 V38A/N42T pseudovirus. The format is cell-based.
Description: (§2) HIV-1 pseudoviruses were generated as described previously [32], [55]–[56]. Briefly, 293T cells (5×10^6 cells in 15 ml of growth medium in a T-75 culture flask) were cotransfected with 10 µg of an Env-expressing plasmid and 20 µg of a backbone plasmid pSG3deltaEnv that encodes Env-defective, luciferase-expressing HIV-1 genome using Lipofectamine 2000 reagent (Invitrogen). Pseudovirus-containing culture supernatants were harvested 48 hours after transfection and filtered by 0.45-mm pore size, and stored at −80°C in 1-ml aliquots until use. The 50% tissue culture infectious dose (TCID50) of a single thawed aliquot of each pseudovirus batch was determined in TZM-bl cells. […] Briefly, the peptides were prepared with ten series dilutions in a 3-fold stepwise manner and mixed with 100 TCID50 viruses and incubated 1 hour at room temperature. The mixture was added to TZM-bl cells (10^4/well) and incubation at 37°C for 48 hours. Luciferase activity was measured using luciferase assay regents (Promega, Medison, WI) and a Luminescence Counter (Promega) according to the manufacture's instructions.
The subject of data set [3] is N36 (NHR target sequence). To be noted: complex with N36; CD at 222 nm, 20–90°C, 1°C per min, 1 µM in PBS buffer. As for the experimental part: CD spectroscopy was performed as previously described, [26]. […] The final peptide concentration was 10 µM in PBS buffer (pH 7.2). The isolated N- and C-peptides were also tested. The CD spectra of these individual peptides and peptide mixtures were acquired on MOS-450 spectropolarimeter (Bio-Logic, France) using a 1 nm bandwidth with a 1 nm step resolution from 190 to 260 nm at room temperature. The spectra were corrected by subtraction of a blank corresponding to the solvent. Data were averaged over three accumulations. […] Tm value was detected at protein concentration of 1 µM in PBS buffer.

The subject of data set [4] is SF162.LS pseudovirus (subtype B). The format is cell-based, HIV-1. Conditions: R5, TZM-bl, 48 h, triplicate, mean ± SD of three independent experiments. The source says:
(§1) A panel of plasmids encoding HIV-1 Envs were obtained through the AIDS Research and Reference Reagent Program (ARRRP), Division of AIDS, NIAID, NIH, including subtype A Env clones pSVIII-92RW020.5 and 92UG037.8 from Dr. B.H. Hahn; subtype B Env clones SC422661.8, TRO.11 and AC10.0.29 from Drs. D. Montefiori, F. Gao and M. Li, pRHPA4259.7 and pREJO4541.67 from Drs. B.H. Hahn and J.F. Salazar-Gonzalez, and pCAAN5342.A2 from Drs. B.H. Hahn and D.L. Kothe; subtype C Env clones Du172.17 and Du422.1 from Drs. D. Montefiori, F. Gao, S. Abdool Karim and G. Ramjee, CAP45.2.00.G3 from Drs. L. Morris, K. Mlisana and D. Montefiori, ZM197M.PB7 from Drs. B.H. Hahn, Y. Li and J.F. Salazar-Gonzalez, ZM109F.PB4 from Drs. E. Hunter and C. Derdeyn. Six CRF07_BC Env clones (CH064.20, CH070.1, CH091.9, CH110.2, CH119.10 and CH120.6) were generous gifts by Dr. Y. Shao in the Chinese Center for Disease Control and Prevention, Beijing, China. A panel of Env clones derived from subtype B′ (B01, B02, B04, and 43-22), CRF01_AE (SHX335.24, YN192.31, AE01, AE03, GX2010.36, GX11.13, GX2010.36H, BJ5.11), and CRF07_BC (BC02, BC03, BC05, BC07, BC14, SC19-15, BJ22-5, YN148R-9, XJ50-6, HB5-3) were kindly provided by Dr. Y. Wang from the National Institute for the Control of Pharmaceutical and Biological Products, Beijing, China.

Data set [5] relates to YN148r-9 pseudovirus (CRF07_BC). Type of data set: cell-based, HIV-1. To be noted: YN148r-9, CRF07_BC, R5; TZM-bl, 48 h; triplicate, mean ± SD of at least three independent experiments.
Description: as §1

Data set [6] has as its system BC05 pseudovirus (CRF07_BC). Type of data set: cell-based, HIV-1. To be noted: R5, TZM-bl, 48 h, triplicate, mean ± SD of at least three independent experiments.
Description: as §1

Data set [7] concerns AE03 pseudovirus (CRF01_AE). Type of data set: cell-based, HIV-1. Conditions: R5, TZM-bl, 48 h, triplicate, mean ± SD of at least three independent experiments.
Description: as §1

Data set [8] relates to ZM197M.PB7 pseudovirus (subtype C). Type of data set: cell-based, HIV-1. Conditions: R5, TZM-bl, 48 h, triplicate, mean ± SD of three independent experiments.
Description: as §1

The subject of data set [9] is CAP45.2.00.G3 pseudovirus (subtype C). Type of data set: cell-based, HIV-1. Conditions: CAP45.2.00.G3, subtype C, R5; TZM-bl, 48 h; triplicate, mean ± SD of three independent experiments.
Description: as §1

The subject of data set [10] is CH119 pseudovirus (CRF07_BC). The format is cell-based, HIV-1. To be noted: R5, TZM-bl, 48 h, triplicate, mean ± SD of at least three independent experiments.
Description: as §1

Data set [11] has as its system HB5-3 pseudovirus (CRF07_BC). The format is cell-based, HIV-1. To be noted: HB5-3, CRF07_BC, R5; TZM-bl, 48 h; triplicate, mean ± SD of at least three independent experiments.
Description: as §1

For data set [12], the system named is 92RW020 pseudovirus (subtype A). The format is cell-based, HIV-1. Conditions: 92RW020, subtype A, R5; TZM-bl, 48 h; triplicate, mean ± SD of three independent experiments.
Description: as §1

For data set [13], the system named is HIV-1NL4-3 Q40H pseudovirus. The format is cell-based. To be noted: HIV-1NL4-3 Q40H; TZM-bl, 48 h; mean ± SD of three independent experiments.
Description: (§3) The mutations were created using double-stranded DNA templates and selection of mutants with DpnI. For each mutation, the two primers contained the desired mutation and occupied the same starting and ending positions on opposite strands of the plasmid DNA. DNA synthesis was carried out by PCR in a 50-µL reaction volume using 1 µL of denatured plasmid template (1 ng/µL), 50 pmol of upper and lower primers and 5 U of high-fidelity thermostable polymerase PrimeStar (Takara, Dalian, China). PCR amplification was carried out for one cycle of denaturation at 98°C for 5 min, then 18 cycles of 98°C for 15 s and 68°C for 15 min, followed a final extension at 72°C for 10 min. The amplicons were treated with the restriction enzyme DpnI for 1 h at 37°C. DpnI-resistant molecules, which were rich in the desired mutants, were recovered by transforming Escherichia coli strain-DH5α to antibiotic resistance. The successful mutations were confirmed by sequencing.
as §2
The subject of data set [14] is HIV-1HXB2 Env-mediated cell-cell membrane fusion (TZM-bl / HL2/3 cells). To be noted: read-out: IC50, Env-mediated cell-cell fusion; TZM-bl with HL2/3 cells, 6 h, 37°C, luciferase; three independent experiments. The protocol:
Cell fusion was monitored using a reporter gene assay based on activation of HIV LTR-driven luciferase cassette in TZM-bl (Target) cells by HIV-1 tat from the HL2/3 (Effector) cells. Briefly, the TZM-bl cells were plated in 96-well clusters (2×10^4 per well) and incubated at 37°C overnight. […] Luciferase activity was measured using luciferase assay regents (Promega, Medison, WI) and a Luminescence Counter (Promega) according to the manufacture's instructions. Background luminescence in TZM-bl cells was determined without addition of HL2/3 cells.

For data set [15], the system named is HIV-1NL4-3 V38A pseudovirus. Type of data set: cell-based.
Description: as §2
Data set [16] relates to HIV-1NL4-3 I37T/N43K pseudovirus. The format is cell-based. To be noted: HIV-1NL4-3 I37T/N43K; TZM-bl, 48 h; mean ± SD of three independent experiments.
Description: as §3, §2

What is called IC50 is the point on the concentration scale where inhibition reaches its midpoint.

For the substance enfuvirtide, the concentration for half-maximal inhibition (IC50) in data set [1] (L33S infectious molecular clone of HIV-1NL4-3, TZM-bl, 100 TCID50, two days, mean ± SD of three independent experiments) is above 750 nM; in data set [2] (HIV-1NL4-3 V38A/N42T, TZM-bl, 48 h, mean ± SD of three independent experiments) it was above 3000 nM; in [4] it was 43.5 ± 9.16 nM; in data set [5], 131 ± 14.7 nM; in data set [6], 4.39 ± 0.25 nM; in data set [7] it was 7.8 ± 1.66 nM. For the same substance, the half-inhibitory concentration (IC50) came to 63.3 ± 17 nM in data set [8]; 96.2 ± 6.91 nM in [9]; 22.1 ± 2.74 nM in data set [10]; 23.1 ± 2.55 nM in data set [11]; 25.4 ± 9.81 nM in [12]; 731 ± 35.2 nM in data set [13]. Besides, the 50% inhibitory concentration (IC50) in [14] is 56.2 nM; in data set [15] (HIV-1NL4-3 V38A, TZM-bl, 48 h, mean ± SD of three independent experiments), 1260 ± 182 nM; in data set [16], above 3000 nM. In data set [1] (infectious molecular clone, T20 up to 750 nM), the “inhibitory activity on L33S virus (in words)” value was “no any inhibitory activity at a concentration up to 750 nM”. The “resistance change with V38A/N42T (in words)” value in data set [2] (V38A/N42T double mutations) is recorded as “high-fold resistance changes”. Besides, the “Tm of C-peptide/N36 complex” value in [3] is reported as “undetectable”. For the same substance, the “resistance change with V38A (in words)” value in [15] (V38A single mutation) is listed as “high-fold resistance changes”.
